# Experimental data from patent US20250357519A1, “APPLICATIONS OF O2-INSENSITIVE FORMATE DEHYDROGENASE” (UNIVERSITY OF MARYLAND, BALTIMORE, priority 2022, published 2025).
# Like-named read-outs stand apart in the source and are kept apart here.
# Experiments:
# [1] = test system: Desulfovibrio vulgaris Hildenborough (DvH) FDH2, wild-type natively-purified (FDH2^WT), large subunit DVU2482 SEQ ID NO: 31, small subunit DVU2481 SEQ ID NO: …; conditions: cited from earlier work
# [2] = test system: Desulfovibrio gigas (Dg) W-FDH1, wild-type natively-purified (W-FDH1^WT); conditions: pH 8.0, 37 °C, 7.5 mM BV, 35 nM enzyme; Mota (2011); cited from earlier work
# [3] = test system: Desulfovibrio vulgaris Hildenborough (DvH) W-FDH1, wild-type natively-purified (W-FDH1^WT), large subunit DVU0587 SEQ ID NO: 29, small subunit DVU0588 SEQ ID …; conditions: pH 7.6, RT, 2 mM BV, cited from earlier work
# [4] = target: T1, Desulfovibrio vulgaris Hildenborough (DvH) FDH2, recombinant Strep-tag II-tagged (FDH2^Rec), large subunit DVU2482 SEQ ID NO: 31, small subunit DVU2481 SEQ ID N (Nitratidesulfovibrio vulgaris, UniProt Q728X0); assay: PES/DCPIP assay of formate oxidation
# T1 sequence (Q728X0 36-1003): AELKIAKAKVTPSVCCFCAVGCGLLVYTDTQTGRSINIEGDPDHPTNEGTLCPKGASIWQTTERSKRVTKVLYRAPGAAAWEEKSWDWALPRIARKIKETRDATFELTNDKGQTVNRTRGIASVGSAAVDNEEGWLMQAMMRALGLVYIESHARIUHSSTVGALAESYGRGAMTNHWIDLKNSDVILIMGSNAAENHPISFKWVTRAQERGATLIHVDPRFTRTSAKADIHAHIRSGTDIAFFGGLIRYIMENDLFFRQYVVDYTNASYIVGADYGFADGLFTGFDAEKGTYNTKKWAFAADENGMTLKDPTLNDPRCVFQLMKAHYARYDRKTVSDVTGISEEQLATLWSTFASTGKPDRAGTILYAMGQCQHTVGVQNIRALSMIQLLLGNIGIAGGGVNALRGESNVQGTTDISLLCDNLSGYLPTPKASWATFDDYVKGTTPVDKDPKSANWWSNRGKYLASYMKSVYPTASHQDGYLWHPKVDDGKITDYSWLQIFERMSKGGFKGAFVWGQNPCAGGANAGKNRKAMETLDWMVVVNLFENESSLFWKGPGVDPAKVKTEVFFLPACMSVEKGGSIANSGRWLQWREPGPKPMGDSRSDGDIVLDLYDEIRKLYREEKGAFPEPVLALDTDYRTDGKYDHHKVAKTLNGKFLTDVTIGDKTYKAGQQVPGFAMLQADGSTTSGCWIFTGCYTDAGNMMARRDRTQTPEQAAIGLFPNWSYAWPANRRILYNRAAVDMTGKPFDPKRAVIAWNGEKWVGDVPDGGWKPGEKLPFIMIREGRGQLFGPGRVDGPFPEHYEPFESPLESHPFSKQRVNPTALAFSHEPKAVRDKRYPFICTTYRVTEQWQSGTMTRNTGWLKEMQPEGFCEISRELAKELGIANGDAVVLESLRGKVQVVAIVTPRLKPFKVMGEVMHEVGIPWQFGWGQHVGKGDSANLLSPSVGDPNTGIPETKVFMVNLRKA
# T1 sequence (Q728X1 1-260 partner): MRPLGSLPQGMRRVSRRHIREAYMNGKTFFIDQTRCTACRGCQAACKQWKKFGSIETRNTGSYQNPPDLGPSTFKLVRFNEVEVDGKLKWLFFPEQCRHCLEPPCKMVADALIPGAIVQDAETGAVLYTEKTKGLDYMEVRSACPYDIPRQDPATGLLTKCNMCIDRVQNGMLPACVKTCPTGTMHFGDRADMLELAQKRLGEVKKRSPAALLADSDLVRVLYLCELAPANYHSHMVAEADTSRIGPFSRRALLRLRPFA
# [5] = target: T1, Desulfovibrio vulgaris Hildenborough (DvH) FDH2, recombinant Strep-tag II-tagged (FDH2^Rec), large subunit DVU2482 SEQ ID NO: 31, small subunit DVU2481 SEQ ID N; assay: Benzyl viologen (BV) assay of formate oxidation
# [6] = test system: Desulfovibrio vulgaris Hildenborough (DvH) Mo-FDH3, wild-type natively-purified (Mo-FDH3^WT); conditions: pH 7.6, RT, 2 mM BV, 0.25 nM enzyme; Da Silva et al (2011); cited from earlier work
# [7] = BV (2 mM), anaerobic, 1 replicate, da Silva et al (2011), Table 4
# [8] = pH 7.6, RT, 2 mM BV, 0.48 nM enzyme, Da Silva et al (2011)
# [9] = 0.0124 nM enzyme, Da Silva et al (2011)
smiles,measurement,setting,value
O=CO [formate],Km,[1]; [7],4 µM
same,kcat,[1]; [7],81 s⁻¹
same,Km,[1]; [8],4 µM
same,kcat,[1]; [8],81 s⁻¹
same,Km,[2],51 µM
same,kcat,[2],174 s⁻¹
same,Km,[3]; [9],1 µM
same,kcat,[3]; [9],3684 s⁻¹
same,kcat,"[3]; 1.4 nM enzyme, Oliveira et al (2020)",1104 ± 62 s⁻¹
same,kcat,"[4]; DCPIP (air), full progress curve global fit",354 ± 5 s⁻¹
same,kcat,"[4]; DCPIP (anaerobic), full progress curve global fit",258 ± 3 s⁻¹
same,kcat,"[4]; PES/DCPIP, air, initial velocities, 10 replicates, pH 8.0",317 ± 14 s⁻¹
same,TN (kcat) relative to that obtained with 2 mM BV,"[4]; PES/DCPIP, anaerobic full-progress curves vs 2 mM BV",~5 fold
same,kcat,"[4]; PES/DCPIP, anaerobic, initial velocities, 5 replicates, pH 8.0",220 ± 5 s⁻¹
same,TN (kcat) for formate oxidation relative to Mo-Cys-FDH from Rhodobacter capsulatus,"[4]; PES/DCPIP, comparator with NAD^+ as acceptor (ref 40)",roughly an order of magnitude
same,binding constant (Km) for formate,"[4]; general statement, 1.6 nM enzyme, formate 0 to 100 μM",low micromolar range
same,kcat,"[5]; 2 mM BV (anaerobic), full progress curve global fit",47 ± 2 s⁻¹
same,kcat,"[5]; BV (2 mM), anaerobic, initial velocities, 3 replicates, pH 8.0, 25 °C",68 ± 5 s⁻¹
same,kcat,"[5]; BV (20 mM), anaerobic, initial velocities, 3 replicates, pH 8.0, 25 °C",111 ± 16 s⁻¹
same,Km,[6],8 µM
same,kcat,[6],262 s⁻¹
